In US20040010036A1, “N,N, -Substituted s-Aryl-Isothioureas, N,N,N, -Substituted s-Aryl-Isothioureas and combinatorial libraries thereof” (priority 2002, published 2004):

Test system: Streptococcus pyogenes (ATCC# 97-03 14289)
Assay: Anti-microbial screen (percent inhibition of growth, OD 570 nm)
Type: cell-based
Details: Conc 0.1776 mg ml
Protocol: Streptococcus pyogenes (ATCC# 97-03 14289) was grown in Todd Hewitt Broth (THB) (Difco Laboratories #0492-17-6) overnight until reaching an optical density of (OD=0.636@570 nm) by reading 0.1 ml in a 96 well microtiter plate in a Molecular Devices Thermomax. This preparation was kept frozen as stocks in 30% v/v glycerol in 1.5 ml aliquots at […] until use. Prior to experiments, 6 ml aliquots were thawed and diluted into 50 ml 2×THB. 60 ul of this dilution was added to 92 wells of microtiter plate. To three wells THB (200 ul) was added to serve as a blank and a sterility control. Test compounds in DMSO and appropriate concentrations of DMSO were added to Growth/Solvent Controls at 0 time. Plates were read at 0 time at 570 nm in the Molecular Devices plate reader to obtain compounds correction factors for insoluble or colored compounds. Plates were read again at 4 hours.
Percent inhibition is calculated with the following formula:
Color correct=O.D. 0 hr - Blank 0 hr)-(Solvent Control Ohr - Blank 0 hr) [formula]

[1] = Spy4H: Streptococcus pyogenes, read at 4 hours, OD 570 nm
[2] = Streptococcus pyogenes, Assay Spy4H, plates read at 570 nm at 0 time and at 4 hours

Row | Compound | inhibition of growth at 177.6 µg/mL [1] | inhibition of growth at 177.6 µg/mL [2]
1 | Cc1ccc(CN(Cc2ccc(O)cc2)/C(=N\c2ccc(C(F)(F)F)cc2)Sc2ccc(C)cc2C)cc1 [Cmpd 7] | 63.7% | –
2 | Cc1ccc(CN(Cc2ccc(O)cc2)/C(=N/c2ccc(Cl)c(Cl)c2)Sc2ccc(C)cc2C)cc1 [Cmpd 8] | 57.5% | –
3 | Cc1ccc(CN(Cc2ccc(O)cc2)/C(=N/c2cc(Cl)cc(Cl)c2)Sc2ccc(C)cc2C)cc1 [Cmpd 13] | 65.7% | –
4 | Cc1ccc(CN(Cc2ccc(O)cc2)/C(=N\c2ccc(Cl)c([N+](=O)[O-])c2)Sc2ccc(C)cc2C)cc1 [Cmpd 23] | 61.3% | –
5 | Cc1ccc(CN(Cc2ccc(O)cc2)/C(=N/c2ccccc2[N+](=O)[O-])Sc2ccc(C)cc2C)cc1 [Cmpd 26] | 58.1% | –
6 | COc1ccc(C)cc1/N=C(\Sc1ccc(C)cc1C)N(Cc1ccc(C)cc1)Cc1ccc(O)cc1 [Cmpd 29] | – | 53.7%
7 | Cc1ccc(CN(Cc2ccc(O)cc2)/C(=N\c2ccc(Cl)c(C(F)(F)F)c2)Sc2ccc(C)cc2C)cc1 [Cmpd 33] | 57.8% | –
8 | Cc1ccc(CN(Cc2ccc(O)cc2)/C(=N/c2ccc(F)c(F)c2)Sc2ccc(C)cc2C)cc1 [Cmpd 36] | – | 56.8%
9 | COc1cccc(S/C(=N\Cc2ccc(F)cc2)N(Cc2ccc(O)cc2)Cc2ccc(Cl)c(Cl)c2)c1 [Cmpd 44] | 67.5% | –
10 | COc1cccc(S/C(=N\c2cccc(C(F)(F)F)c2)N(Cc2ccc(O)cc2)Cc2ccc(Cl)c(Cl)c2)c1 [Cmpd 46] | 60.6% | –
11 | COc1cccc(S/C(=N\c2ccc(C(F)(F)F)cc2)N(Cc2ccc(O)cc2)Cc2ccc(Cl)c(Cl)c2)c1 [Cmpd 47] | 85.8% | –
12 | COc1cccc(S/C(=N\c2cccc(Cl)c2)N(Cc2ccc(O)cc2)Cc2ccc(Cl)c(Cl)c2)c1 [Cmpd 52] | – | 52.6%
13 | COc1cccc(S/C(=N\c2cc(Cl)cc(Cl)c2)N(Cc2ccc(O)cc2)Cc2ccc(Cl)c(Cl)c2)c1 [Cmpd 53] | 70.2% | –
14 | COc1cccc(S/C(=N\c2ccc(Cl)c([N+](=O)[O-])c2)N(Cc2ccc(O)cc2)Cc2ccc(Cl)c(Cl)c2)c1 [Cmpd 63] | 66.8% | –
15 | COc1cccc(S/C(=N/c2ccc(Cl)c(C(F)(F)F)c2)N(Cc2ccc(O)cc2)Cc2ccc(Cl)c(Cl)c2)c1 [Cmpd 73] | 85.8% | –
16 | COc1cccc(S/C(=N/c2ccc(OC(F)(F)F)cc2)N(Cc2ccc(O)cc2)Cc2ccc(Cl)c(Cl)c2)c1 [Cmpd 75] | – | 52.3%
17 | COCCN(Cc1cccc(O)c1)/C(=N\c1cccc(F)c1)Sc1ccc(C)cc1C [Cmpd 83] | 70.9% | –
18 | COCCN(Cc1cccc(O)c1)/C(=N\c1ccc(F)cc1F)Sc1ccc(C)cc1C [Cmpd 85] | 82.3% | –
19 | COCCN(Cc1cccc(O)c1)/C(=N\c1ccc(C)cc1)Sc1ccc(C)cc1C [Cmpd 90] | 81.3% | –
20 | COCCN(Cc1cccc(O)c1)/C(=N\c1cccc(Cl)c1)Sc1ccc(C)cc1C [Cmpd 92] | 59.8% | –
21 | COCCN(Cc1cccc(O)c1)/C(=N\c1ccc(F)c(Cl)c1)Sc1ccc(C)cc1C [Cmpd 94] | – | 54%

Row | Compound | inhibition of growth at 177.6 µg/mL [1] | inhibition of growth at 177.6 µg/mL [2]
22 | CCc1cccc(/N=C(/Sc2ccc(C)cc2C)N(CCOC)Cc2cccc(O)c2)c1 [Cmpd 98] | 69.9% | –
23 | COCCN(Cc1cccc(O)c1)/C(=N\c1ccc(Cl)c([N+](=O)[O-])c1)Sc1ccc(C)cc1C [Cmpd 103] | 58.9% | –
24 | COCCN(Cc1cccc(O)c1)/C(=N\c1cc(C)ccc1OC)Sc1ccc(C)cc1C [Cmpd 109] | – | 56.3%
25 | COCCN(Cc1cccc(O)c1)/C(=N\c1ccc(Cl)c(C(F)(F)F)c1)Sc1ccc(C)cc1C [Cmpd 113] | 59.8% | –
26 | COc1cccc(S/C(=N\Cc2ccc(F)cc2)N(Cc2ccc(C)cc2)Cc2ccc(O)cc2)c1 [Cmpd 124] | – | 55.6%
27 | COc1cccc(S/C(=N/c2ccc(C(F)(F)F)cc2)N(Cc2ccc(C)cc2)Cc2ccc(O)cc2)c1 [Cmpd 127] | 61.5% | –
28 | COc1cccc(S/C(=N\c2cc(Cl)cc(Cl)c2)N(Cc2ccc(C)cc2)Cc2ccc(O)cc2)c1 [Cmpd 133] | 94.3% | –
29 | COc1cccc(S/C(=N/c2ccc(Cl)c([N+](=O)[O-])c2)N(Cc2ccc(C)cc2)Cc2ccc(O)cc2)c1 [Cmpd 143] | 93.6% | –
30 | COc1cccc(S/C(=N/c2ccc(Cl)c(C(F)(F)F)c2)N(Cc2ccc(C)cc2)Cc2ccc(O)cc2)c1 [Cmpd 153] | 70.6% | –
31 | Cc1ccc(S/C(=N\c2ccc(C(F)(F)F)cc2)N(Cc2ccc(O)cc2)Cc2cccc(Cl)c2)cc1 [Cmpd 167] | 71% | –
32 | Cc1ccc(S/C(=N\c2ccc(Cl)c(Cl)c2)N(Cc2ccc(O)cc2)Cc2cccc(Cl)c2)cc1 [Cmpd 168] | – | 49.5%
33 | Cc1ccc(S/C(=N\c2cc(Cl)cc(Cl)c2)N(Cc2ccc(O)cc2)Cc2cccc(Cl)c2)cc1 [Cmpd 173] | 70.7% | –
34 | Cc1ccc(S/C(=N\c2ccc(Cl)c([N+](=O)[O-])c2)N(Cc2ccc(O)cc2)Cc2cccc(Cl)c2)cc1 [Cmpd 183] | 64.8% | –
35 | Cc1ccc(S/C(=N\c2ccccc2[N+](=O)[O-])N(Cc2ccc(O)cc2)Cc2cccc(Cl)c2)cc1 [Cmpd 186] | – | 56.5%
36 | COc1ccc(C)cc1/N=C(\Sc1ccc(C)cc1)N(Cc1ccc(O)cc1)Cc1cccc(Cl)c1 [Cmpd 189] | 61.8% | –
37 | Cc1ccc(CN(Cc2cccc(O)c2)/C(=N/Cc2cccc(C)c2)Sc2ccc(C)cc2C)cc1 [Cmpd 202] | – | 51.9%
38 | Cc1ccc(CN(Cc2cccc(O)c2)/C(=N/Cc2ccc(F)cc2)Sc2ccc(C)cc2C)cc1 [Cmpd 204] | 69.1% | –
39 | Cc1ccc(CN(Cc2cccc(O)c2)/C(=N\c2ccc(C(F)(F)F)cc2)Sc2ccc(C)cc2C)cc1 [Cmpd 207] | 95.9% | –
40 | Cc1ccc(CN(Cc2cccc(O)c2)/C(=N/c2cc(Cl)cc(Cl)c2)Sc2ccc(C)cc2C)cc1 [Cmpd 213] | – | 57.1%
41 | Cc1ccc(CN(Cc2cccc(O)c2)/C(=N/c2ccccc2[N+](=O)[O-])Sc2ccc(C)cc2C)cc1 [Cmpd 226] | 74.4% | –
42 | COc1ccc(C)cc1/N=C(\Sc1ccc(C)cc1C)N(Cc1ccc(C)cc1)Cc1cccc(O)c1 [Cmpd 229] | 65.8% | –

Row | Compound | inhibition of growth at 177.6 µg/mL [1] | inhibition of growth at 177.6 µg/mL [2]
43 | Cc1ccc(CN(Cc2cccc(O)c2)/C(=N\c2ccc(Cl)c(C(F)(F)F)c2)Sc2ccc(C)cc2C)cc1 [Cmpd 233] | 60.5% | –
44 | Cc1ccc(S/C(=N/Cc2ccccc2)N(Cc2ccc(O)cc2)CC(C)C)cc1 [Cmpd 241] | – | 49.8%
45 | Cc1ccc(S/C(=N/Cc2ccc(F)cc2)N(Cc2ccc(O)cc2)CC(C)C)cc1 [Cmpd 244] | – | 51.6%
46 | Cc1ccc(S/C(=N/c2ccc(C(F)(F)F)cc2)N(Cc2ccc(O)cc2)CC(C)C)cc1 [Cmpd 247] | 60.3% | –
47 | Cc1ccc(S/C(=N/c2ccc(Cl)c(Cl)c2)N(Cc2ccc(O)cc2)CC(C)C)cc1 [Cmpd 248] | – | 55%
48 | Cc1ccc(S/C(=N/c2cc(Cl)cc(Cl)c2)N(Cc2ccc(O)cc2)CC(C)C)cc1 [Cmpd 253] | 66.5% | –
49 | Cc1ccc(S/C(=N/c2ccc(F)c(Cl)c2)N(Cc2ccc(O)cc2)CC(C)C)cc1 [Cmpd 254] | – | 49.2%
50 | Cc1ccc(S/C(=N/c2ccc(Cl)c([N+](=O)[O-])c2)N(Cc2ccc(O)cc2)CC(C)C)cc1 [Cmpd 263] | – | 53.8%
51 | Cc1ccc(S/C(=N/c2ccc(Cl)c(C(F)(F)F)c2)N(Cc2ccc(O)cc2)CC(C)C)cc1 [Cmpd 273] | 64.6% | –
52 | Cc1ccc(S/C(=N/c2ccc(F)c(F)c2)N(Cc2ccc(O)cc2)CC(C)C)cc1 [Cmpd 276] | 62.1% | –
53 | Cc1cccc(C/N=C(\Sc2ccc(C)cc2C)N(CCc2ccc(Cl)cc2)Cc2cccc(O)c2)c1 [Cmpd 282] | – | 49.8%
54 | Cc1ccc(S/C(=N\Cc2ccc(F)cc2)N(CCc2ccc(Cl)cc2)Cc2cccc(O)c2)c(C)c1 [Cmpd 284] | 64% | –
55 | Cc1ccc(S/C(=N\c2ccc(C(F)(F)F)cc2)N(CCc2ccc(Cl)cc2)Cc2cccc(O)c2)c(C)c1 [Cmpd 287] | 97.7% | –
56 | Cc1ccc(S/C(=N\c2ccc(F)c(Cl)c2)N(CCc2ccc(Cl)cc2)Cc2cccc(O)c2)c(C)c1 [Cmpd 294] | – | 56.6%
57 | Cc1ccc(S/C(=N/c2ccc(Cl)c(C(F)(F)F)c2)N(CCc2ccc(Cl)cc2)Cc2cccc(O)c2)c(C)c1 [Cmpd 313] | – | 50.4%
58 | COc1cccc(CN(Cc2cccc(O)c2)/C(=N/c2ccc(C(F)(F)F)cc2)Sc2cccc(OC)c2)c1 [Cmpd 327] | – | 56.7%
59 | COc1cccc(CN(Cc2cccc(O)c2)/C(=N/c2ccc(Cl)c(Cl)c2)Sc2cccc(OC)c2)c1 [Cmpd 328] | 98.9% | –
60 | COc1cccc(CN(Cc2cccc(O)c2)/C(=N/c2cc(Cl)cc(Cl)c2)Sc2cccc(OC)c2)c1 [Cmpd 333] | 67.2% | –
61 | COc1cccc(CN(Cc2cccc(O)c2)/C(=N/c2ccc(F)c(Cl)c2)Sc2cccc(OC)c2)c1 [Cmpd 334] | – | 50.6%
62 | COc1cccc(CN(Cc2cccc(O)c2)/C(=N/c2ccc(Cl)c([N+](=O)[O-])c2)Sc2cccc(OC)c2)c1 [Cmpd 343] | – | 52.7%
63 | COc1cccc(CN(Cc2cccc(O)c2)/C(=N\c2ccc(Cl)c(C(F)(F)F)c2)Sc2cccc(OC)c2)c1 [Cmpd 353] | 59.1% | –
